The source of these data is patent US11547694B2, “CXCR4/CXCR7 blockade and treatment of human papilloma virus-associated disease” (priority 2017, dated 2023).

One data set deals with TC-1 tumor cells. Type of data set: in vivo. The conditions noted are these: C57BL/6 mice with s.c. TC-1 tumors.
For data set [1], the system named is ovarian preclinical cancer model.
A further data set addresses CXCR4 (Homo sapiens, UniProt P61073). The note with it: cited from earlier work.
Another data set deals with mature leukocytes. The conditions noted are these: administration of AMD3100; cited from earlier work.
The conditions of data set [2]: 0.01-0.02 mg/kg subcutaneously twice daily for 6 months; phase I clinical trial (Blood 2014; 123(15):2308-16); cited from earlier work.

SMILES strings stand for the structures.

Chain of CXCR4 (P61073 whole entry): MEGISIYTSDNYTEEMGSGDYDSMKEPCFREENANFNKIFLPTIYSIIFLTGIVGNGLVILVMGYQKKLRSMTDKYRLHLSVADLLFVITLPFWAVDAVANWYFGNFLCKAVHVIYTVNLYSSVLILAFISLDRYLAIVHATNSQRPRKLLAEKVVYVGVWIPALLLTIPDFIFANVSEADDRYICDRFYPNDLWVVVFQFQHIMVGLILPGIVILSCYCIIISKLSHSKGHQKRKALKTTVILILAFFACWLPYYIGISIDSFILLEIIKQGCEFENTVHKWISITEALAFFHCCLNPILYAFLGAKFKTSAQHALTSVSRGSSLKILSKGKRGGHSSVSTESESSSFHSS
From the text for TC-1 tumor cells: Methods. C57BL/6 mice were inoculated with 1×10^5 TC-1 tumor cells subcutaneously into the right flank. When tumors reached approximately 60-70 mm^3 in size, various treatments were initiated. The treatment groups (N=5) consisted of no treatment, administration of an isotype control IgG antibody (clone 2A3, BioXcell), anti-PD-1 monotherapy (clone 29F.1A12, BioXcell), AMD3100 monotherapy (catalog AB120718, AbCam), combination of AMD3100 and anti-PD-1 and combination of AMD3100, anti-PD-1, and an HPV vaccine (See, FIGS. 1, 2, 3, and 4).
The treatment regimen consisted of administration of 0.5 mg/mouse of anti-PD-1 antibody (clone 29F.1A12, BioXcell) or isotype control antibody (clone 2A3, BioXcell) every 5 days for a total of 3 treatments. Prior to each dose of antibody, the mice were treated with 3 mg/kg of AMD3100 (catalog AB120718, AbCam). In addition, a subset of mice were treated with a 1:1 ratio of 20 mcg of HPV E7 peptide vaccine and 20 mcg of poly I:C adjuvant in a total volume of 20 μl, which was administered intratumorally. The tumors were measured twice a week with calipers. When the tumor measured over 2 centimeters in any one direction, the animal was sacrificed according to IACUC policy.

For `c1cc(CN2CCCNCCNCCCNCC2)ccc1CN1CCCNCCNCCCNCC1` [AMD3100], in the data set on TC-1 tumor cells (AMD3100 3 mg/kg before each antibody dose, anti-PD-1 0.5 mg/mouse every 5 days x3, HPV E7 peptide vaccine intratumorally, caliper tumor volume), the “anti-tumor effect (tumor growth, FIG. 1, FIG. 3)” value is “enhanced anti-tumor effect”. The “survival (FIG. 2, FIG. 4)” value with TC-1 tumor cells (same regimen, Log-rank test) is listed as “prolonged survival”. In data set [1], the “CD8+ T cells” value was “increase”, the Treg infiltration entry was “decrease” and the anti-tumor effect result is listed as “enhanced anti-tumor effect”. Also, the “antagonism of CXCR4” value on CXCR4 was “highly specific antagonist of CXCR4”. Besides, the “mobilization of leukocytes into the blood” value in the data set on mature leukocytes is recorded as “rapidly mobilize all major subsets of mature leukocytes into the blood”. In addition, the “safety of long-term, low-dose treatment” value in data set [2] is “demonstrated the safety”.
